In BindingDB's records for doi:10.7270/Q2XW4H88 (Nmmlsc, 2011):

Target: T1, Integrin alpha-L (Mus musculus, UniProt P24063)
T1 sequence (P24063 whole entry): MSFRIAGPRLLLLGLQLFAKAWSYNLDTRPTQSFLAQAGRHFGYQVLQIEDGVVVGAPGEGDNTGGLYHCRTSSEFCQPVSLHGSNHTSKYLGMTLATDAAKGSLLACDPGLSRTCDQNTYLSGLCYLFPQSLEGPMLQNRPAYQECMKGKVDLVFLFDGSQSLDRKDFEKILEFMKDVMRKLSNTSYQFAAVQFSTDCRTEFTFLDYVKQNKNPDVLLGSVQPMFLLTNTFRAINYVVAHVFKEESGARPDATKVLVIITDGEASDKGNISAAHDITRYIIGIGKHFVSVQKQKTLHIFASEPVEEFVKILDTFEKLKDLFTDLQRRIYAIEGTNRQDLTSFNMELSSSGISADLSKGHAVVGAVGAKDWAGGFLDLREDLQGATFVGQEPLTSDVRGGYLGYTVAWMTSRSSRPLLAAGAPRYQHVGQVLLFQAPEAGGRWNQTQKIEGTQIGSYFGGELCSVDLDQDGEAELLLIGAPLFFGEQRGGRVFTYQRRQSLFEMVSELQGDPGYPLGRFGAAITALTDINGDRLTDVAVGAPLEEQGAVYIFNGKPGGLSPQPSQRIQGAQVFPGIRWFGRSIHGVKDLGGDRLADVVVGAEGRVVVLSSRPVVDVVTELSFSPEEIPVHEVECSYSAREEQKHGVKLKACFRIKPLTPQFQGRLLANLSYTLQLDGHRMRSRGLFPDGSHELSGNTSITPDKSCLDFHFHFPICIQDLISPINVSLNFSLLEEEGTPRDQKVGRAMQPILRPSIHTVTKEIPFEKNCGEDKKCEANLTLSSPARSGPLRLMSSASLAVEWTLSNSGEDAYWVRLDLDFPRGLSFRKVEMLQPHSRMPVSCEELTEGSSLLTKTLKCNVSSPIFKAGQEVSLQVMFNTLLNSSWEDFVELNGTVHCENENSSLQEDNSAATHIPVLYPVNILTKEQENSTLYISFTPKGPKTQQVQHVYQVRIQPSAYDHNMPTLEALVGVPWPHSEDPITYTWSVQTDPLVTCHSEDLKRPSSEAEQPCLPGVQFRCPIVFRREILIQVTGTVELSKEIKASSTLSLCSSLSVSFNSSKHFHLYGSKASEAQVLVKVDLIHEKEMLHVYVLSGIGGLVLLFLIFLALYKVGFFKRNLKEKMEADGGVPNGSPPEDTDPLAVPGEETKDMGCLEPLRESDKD
Test: modulators of CD8 T cell-vesicle binding, dose response, powder samples, mouse 2C CD8+ cells (AID 504565)

O=C(c1ccc(-n2c(O)c3c(c2O)CC(Cl)=CC3)cc1)N1CCCCC1 [5-chloro-2-[4-[oxo(1-piperidinyl)methyl]phenyl]-3a,4,7,7a-tetrahydroisoindole-1,3-dione]
EC50: 9.02 µM
